The source of these data is paper PMC9400856 (Molecular Informatics, 2022).

The target of this assay is mouse β3-adrenergic receptor (mβ3-AR) (Mus musculus, UniProt P25962). Nature of the assay: cAMP accumulation. It counts as cell-based. On the technique in general: cAMP levels reflect the balance of adenylyl cyclase and phosphodiesterase activity.
mouse β3-adrenergic receptor (mβ3-AR), sequence (P25962 whole entry): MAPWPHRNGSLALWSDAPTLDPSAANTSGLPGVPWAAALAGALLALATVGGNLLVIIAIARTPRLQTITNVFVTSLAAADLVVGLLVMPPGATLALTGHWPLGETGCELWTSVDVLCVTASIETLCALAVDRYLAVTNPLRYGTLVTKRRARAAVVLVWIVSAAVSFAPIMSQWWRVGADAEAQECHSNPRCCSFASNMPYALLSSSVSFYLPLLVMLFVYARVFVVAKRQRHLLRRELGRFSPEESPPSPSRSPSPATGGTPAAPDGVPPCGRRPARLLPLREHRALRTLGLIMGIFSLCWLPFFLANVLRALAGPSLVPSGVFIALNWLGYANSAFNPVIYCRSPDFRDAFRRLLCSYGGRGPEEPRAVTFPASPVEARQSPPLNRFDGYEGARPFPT

In general, EC50 refers to the concentration needed to bring the measured effect to its halfway point. A high value points to weaker potency. The compound `C[C@H](Cc1ccc(OCC(=O)O)cc1)NC[C@H](O)c1cccc(Cl)c1` [compound 3, BRL37344] gave an EC50 of 0.692 nM.
